Test: Prodrug to drug conversion half-life in vitro in PBS at pH 7.4 and 37° C. (UPLC-UV-MS)
Format: physicochemical
Details: prodrug to parent drug conversion, PBS pH 7.4, 37° C., first order T½
Procedure: The assay was performed to investigate the conversion half-life of prodrug to drug of the prodrugs of the invention.
Peptide stock solutions were prepared by dissolving freeze-dried powder in PBS buffer to a target of 200 μM. PBS-buffer was Dulbecco's Phosphate Buffered Saline without CaCl2 and MgCl2, gibco 14190-094 adjusted to pH=7.4. The pH of the peptide stock solutions was adjusted to 7.4 with 0.02 M HCl or 0.02M NaOH. Samples were filled in Agilent HPLC vials with fixed insert. Vials were capped to prevent evaporation. The HPLC vials were incubated at 37° C. and samples were withdrawn at different time points over a period of 2 weeks, flash frozen at −80° C., and stored at −20° C. until analysis.
Sample analysis was carried out using UPLC coupled to UV detection at 215 nm and MS (UPLC-UV-MS). One μl of sample was injected on to a Waters Acquity UPLC with a flow-through-needle injection system and on to a Waters Acquity CSH C18 column (1*150 mm), with a particle size of 1.7 μm and held at 55° C. A flow-rate of 100 μl/min was delivered with a Binary solvent manager pump having 0.1% formic acid in water as solvent A and 0.1% formic acid in acetonitrile as solvent B. Gradient elution was carried out using 15-32% B from 0 to 4 min followed by 32 to 48% B from 4 to 54 min. […]

Compound	half-life (buffer) [h]	Conversion half-life [h]
CC[C@H](C)[C@H](NC(=O)[C@H](Cc1ccccc1)NC(=O)[C@H](CCC(=O)O)NC(=O)[C@H](CCCCNC(=O)COCCOCCNC(=O)COCCOCCNC(=O)CC[C@H](NC(=O)CCCCCCCCCCCCCCCCC(=O)O)C(=O)O)NC(=O)[C@H](C)NC(=O)[C@H](C)NC(=O)[C@H](CCC(N)=O)NC(=O)CNC(=O)[C@H](CCC(=O)O)NC(=O)[C@H](CC(C)C)NC(=O)[C@H](Cc1ccc(O)cc1)NC(=O)[C@H](CO)NC(=O)[C@H](CO)NC(=O)[C@@H](NC(=O)[C@H](CC(=O)O)NC(=O)[C@H](CO)NC(=O)[C@@H](NC(=O)[C@H](Cc1ccccc1)NC(=O)[C@@H](NC(=O)CNC(=O)[C@H](CCC(=O)O)NC(=O)C(C)(C)NC(=O)[C@H](Cc1c[nH]cn1)NC(=O)[C@@H]1CSCN1C(=O)[C@@H](N)CCCCNC(=O)COCCOCCNC(=O)COCCOCCNC(=O)CC[C@H](NC(=O)CCCCCCCCCOc1cccc(C(=O)O)c1)C(=O)O)[C@@H](C)O)[C@@H](C)O)C(C)C)C(=O)N[C@@H](C)C(=O)N[C@@H](Cc1c[nH]c2ccccc12)C(=O)N[C@@H](CC(C)C)C(=O)N[C@H](C(=O)N[C@@H](CCCNC(=N)N)C(=O)NCC(=O)N[C@@H](CCCNC(=N)N)C(=O)NCC(=O)O)C(C)C [Chem. 8, N{ε26}-[2-[2-[2-[[2-[2-[2-[[(4S)-4-carboxy-4-(17-carboxyheptadeca-noylamino)butanoyl]amino]ethoxy]ethoxy]acetyl]amino]ethoxy]ethoxy]acetyl]-N{ε}-[2-[2-[2-[[2-[2-[2-[[(4S)-4-carboxy-4-[10-(3-carboxyphenoxy)decanoylamino]butanoyl]amino]ethoxy]ethoxy]acetyl]amino]ethoxy]ethoxy]acetyl]Lys-Thz-[Aib8,Arg34]-GLP-1-(7-37)-peptide]	175	–
N{ε26}-[2-[2-[2-[[2-[2-[2-[[(4S)-4-carboxy-4-(17-carboxyheptadeca-noylamino)butanoyl]amino]ethoxy]ethoxy]acetyl]amino]ethoxy]ethoxy]acetyl]-N{ε}-[(2S)-2-[[(4S)-4-carboxy-4-(17-carboxyheptadecanoylamino)butanoyl]amino]-3-hydroxypropanoyl]Lys-Thz-[Aib8,Arg34]-GLP-1-(7-37)-peptide [Chem. 18]	–	168

From patent publication US20250304645A1, “Prodrugs of GLP-1 Polypeptide and Uses Thereof” (Novo Nordisk A/S, priority 2022, published 2025)
